According to patent publication US12458651B2, “Compounds and their uses for alleviating menopause-associated symptoms” (ESTETRA SRL, priority 2018, dated 2025):

Legend:
[1] = test system: post-menopausal women; test: GSM symptom (VVA self-assessment): vaginal dryness; format: in vivo
Procedure: Change from baseline to week 12 in the following GSM symptoms (VVA subject self-assessment) were recorded: • a) Vaginal dryness (sensation of dryness or burning in the vagina; none=0 mild=1, moderate=2 or severe=3): […]

[2] = test system: post-menopausal women; test: Dose-finding study: hot flush weekly weighted score; format: in vivo
Procedure: Further, the terms “Hot Flush Weekly Weighted Score”, as used herein, corresponds to a score taking into account frequency and severity which is calculated by using the severity score (as calculated above): [(1×No. of mild VMS)+(2×No. of moderate VMS)+(3×No. of severe VMS)] during a 7 day period.
Such a weighted score was for example used by Notelovitz et al. (“Initial 17β-Estradiol Dose for Treating Vasomotor Symptoms”; Obstetrics and Gynaecology, Vol. 95(5), May 2000, p. 726-731). This score was used to generate the data included in Example 1 further below, under section A. c) “Hot Flush Weekly Weighted Score”.

[3] = test system: postmenopausal women; settings: 2 mg estetrol per day for 28 days; cited from earlier work
[4] = test system: post-menopausal women; test: GSM symptom: vaginal and/or vulvar irritation/itching; format: in vivo
Procedure: Change from baseline to week 12 in the following GSM symptoms (VVA subject self-assessment) were recorded: • a) Vaginal dryness (sensation of dryness or burning in the vagina; none=0 mild=1, moderate=2 or severe=3):
• b) Vaginal and/or vulvar irritation/itching (sensation of abnormal irritation or sensitive condition in the vagina; none=0, mild=1, moderate=2 or severe=3): […]

## C[C@]12CC[C@@H]3c4ccc(O)cc4CC[C@H]3[C@@H]1[C@@H](O)[C@@H](O)[C@@H]2O [Estetrol, 1,3,5 (10)-estratrien-3,15alpha,16alpha,17beta-tetrol]
[1]; E4 2.5 mg, Baseline
  Vaginal dryness score (none=0 to severe=3), mean ± SD: 1 ± 0.90
[1]; E4 2.5 mg, Week 12
  Vaginal dryness score (none=0 to severe=3), mean ± SD: 0.5 ± 0.77
[1]; E4 5 mg, Baseline
  Vaginal dryness score (none=0 to severe=3), mean ± SD: 1.3 ± 0.94
[1]; E4 5 mg, Week 12
  Vaginal dryness score (none=0 to severe=3), mean ± SD: 0.7 ± 0.86
[1]; E4 10 mg, Baseline
  Vaginal dryness score (none=0 to severe=3), mean ± SD: 1 ± 0.93
[1]; E4 10 mg, Week 12
  Vaginal dryness score (none=0 to severe=3), mean ± SD: 0.5 ± 0.75
[1]; E4 15 mg, Baseline
  Vaginal dryness score (none=0 to severe=3), mean ± SD: 1.1 ± 1.04
[1]; E4 15 mg, Week 12
  Vaginal dryness score (none=0 to severe=3), mean ± SD: 0.5 ± 0.68
[2]; 10 mg per day, week 0
  Relative change (% from baseline) in hot flush weekly weighted score, mean: 0%
  Relative change (% from baseline) in hot flush weekly weighted score, mean (section B analysis): 0%
[2]; 10 mg per day, week 1
  Relative change (% from baseline) in hot flush weekly weighted score, mean (section B analysis): −20%
[2]; 10 mg per day, week 2
  Relative change (% from baseline) in hot flush weekly weighted score, mean (section B analysis): −34%
[2]; 10 mg per day, week 3
  Relative change (% from baseline) in hot flush weekly weighted score, mean (section B analysis): −46%
[2]; 10 mg per day, week 4
  Relative change (% from baseline) in hot flush weekly weighted score, mean (section B analysis): −53%
[2]; 10 mg per day, week 5
  Relative change (% from baseline) in hot flush weekly weighted score, mean (section B analysis): −57%
[2]; 10 mg per day, week 6
  Relative change (% from baseline) in hot flush weekly weighted score, mean (section B analysis): −62%
[2]; 10 mg per day, week 7
  Relative change (% from baseline) in hot flush weekly weighted score, mean (section B analysis): −64%
[2]; 10 mg per day, week 8
  Relative change (% from baseline) in hot flush weekly weighted score, mean (section B analysis): −66%
[2]; 10 mg per day, week 9
  Relative change (% from baseline) in hot flush weekly weighted score, mean (section B analysis): −66%
[2]; 10 mg per day, week 10
  Relative change (% from baseline) in hot flush weekly weighted score, mean (section B analysis): −68%
[2]; 10 mg per day, week 11
  Relative change (% from baseline) in hot flush weekly weighted score, mean (section B analysis): −68%
[2]; 10 mg per day, week 12
  Relative change (% from baseline) in hot flush weekly weighted score, mean (section B analysis): −69%
[2]; 15 mg per day, week 0
  Relative change (% from baseline) in hot flush weekly weighted score, mean: 0%
  Relative change (% from baseline) in hot flush weekly weighted score, mean (section B analysis): 0%
[2]; 15 mg per day, week 1
  Relative change (% from baseline) in hot flush weekly weighted score, mean (section B analysis): −22%
[2]; 15 mg per day, week 2
  Relative change (% from baseline) in hot flush weekly weighted score, mean (section B analysis): −45%
[2]; 15 mg per day, week 3
  Relative change (% from baseline) in hot flush weekly weighted score, mean (section B analysis): −56%
[2]; 15 mg per day, week 4
  Relative change (% from baseline) in hot flush weekly weighted score, mean (section B analysis): −66%
[2]; 15 mg per day, week 5
  Relative change (% from baseline) in hot flush weekly weighted score, mean (section B analysis): −70%
[2]; 15 mg per day, week 6
  Relative change (% from baseline) in hot flush weekly weighted score, mean (section B analysis): −72%
[2]; 15 mg per day, week 7
  Relative change (% from baseline) in hot flush weekly weighted score, mean (section B analysis): −75%
[2]; 15 mg per day, week 8
  Relative change (% from baseline) in hot flush weekly weighted score, mean (section B analysis): −76%
[2]; 15 mg per day, week 9
  Relative change (% from baseline) in hot flush weekly weighted score, mean (section B analysis): −78%
[2]; 15 mg per day, week 10
  Relative change (% from baseline) in hot flush weekly weighted score, mean (section B analysis): −77%
[2]; 15 mg per day, week 11
  Relative change (% from baseline) in hot flush weekly weighted score, mean (section B analysis): −79%
[2]; 15 mg per day, week 12
  Relative change (% from baseline) in hot flush weekly weighted score, mean (section B analysis): −81%
[3]
  Mean number of hot flushes and sweating: decrease
[4]; E4 2.5 mg, Baseline
  Vaginal and/or vulvar irritation/itching score (none=0 to severe=3), mean ± SD: 0.7 ± 0.96
[4]; E4 2.5 mg, Week 12
  Vaginal and/or vulvar irritation/itching score (none=0 to severe=3), mean ± SD: 0.3 ± 0.60
[4]; E4 5 mg, Baseline
  Vaginal and/or vulvar irritation/itching score (none=0 to severe=3), mean ± SD: 0.6 ± 0.90
[4]; E4 5 mg, Week 12
  Vaginal and/or vulvar irritation/itching score (none=0 to severe=3), mean ± SD: 0.4 ± 0.65
[4]; E4 10 mg, Baseline
  Vaginal and/or vulvar irritation/itching score (none=0 to severe=3), mean ± SD: 0.7 ± 0.87
[4]; E4 10 mg, Week 12
  Vaginal and/or vulvar irritation/itching score (none=0 to severe=3), mean ± SD: 0.3 ± 0.64
